This note sets out measurements from patent publication US20250179103A1, “6-OXODECAHYDROPYRROLO[1,2-A][1,5]DIAZOCINE AND 6-OXODECAHYDRO-4H-PYRROLO[2,1-D][1,5]THIAZOCINE DERIVATIVES AS STAT3 AND STAT6 MODULATORS FOR THE TREATMENT OF CANCER AND INFLAMMATORY CONDITIONS” (Recludix Pharma, Inc., priority 2022, published 2025).

Assay [1] has as its target T1, Recombinant STAT6 protein (STAT6(W123-T658)) (Homo sapiens, UniProt P42226).
T1 construct: Recombinant STAT6 protein (STAT6(W123-T658))
T1 sequence (P42226 123-658): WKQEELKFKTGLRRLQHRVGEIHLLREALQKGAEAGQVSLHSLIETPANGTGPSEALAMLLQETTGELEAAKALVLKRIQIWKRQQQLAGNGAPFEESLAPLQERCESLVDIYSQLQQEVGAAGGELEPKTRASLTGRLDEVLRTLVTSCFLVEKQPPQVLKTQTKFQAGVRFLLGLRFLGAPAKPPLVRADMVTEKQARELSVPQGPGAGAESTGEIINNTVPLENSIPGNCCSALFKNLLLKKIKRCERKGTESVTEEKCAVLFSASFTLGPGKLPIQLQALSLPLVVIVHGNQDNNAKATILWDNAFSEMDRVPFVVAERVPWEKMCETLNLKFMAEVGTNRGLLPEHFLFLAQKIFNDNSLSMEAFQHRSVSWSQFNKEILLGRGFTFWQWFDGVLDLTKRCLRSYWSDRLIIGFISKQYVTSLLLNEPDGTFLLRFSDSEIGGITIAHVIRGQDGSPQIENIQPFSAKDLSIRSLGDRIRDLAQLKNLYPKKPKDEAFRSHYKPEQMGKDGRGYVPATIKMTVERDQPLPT
The experiment in a line: STAT6 Fluorescence Polarization (FP) Assay. In kind it is binding. Particulars: STAT6(W123-T658) 250 nM, probe 5-FAM-ApYKPFQDLI-NH2 2 nM, 45-minute incubation. The gist of the method:
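Displacement of a fluorescent phosphotyrosine peptide (5-FAM-ApYKPFQDLI-NH2, 2 nM) from STAT6(W123-T658) (250 nM), 1% DMSO, pH 7.4 HEPES buffer. After 45 min at room temperature, polarization (mP) was plotted versus log compound concentration and fitted by nonlinear regression to give IC50.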
On the technique in general: Polarisation of emitted light reports the rotation of a fluorescent probe.

The target in assay [2] is T2, Recombinant STAT3 protein (STAT3(G127-I722)) (Homo sapiens, UniProt P40763).
T2 construct: Recombinant STAT3 protein (STAT3(G127-I722))
The assay can be described thus: STAT3 Fluorescence Polarization (FP) Assay. In kind it is binding. Conditions: STAT3(G127-I722) 25 nM, probe 5-FAM-GpYLPQTV-NH2 2 nM, 45-minute incubation. In a few lines: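 Fluorescence polarization after a 45-min room-temperature incubation measured compound displacement of a 2 nM fluorescein-labelled phosphotyrosine peptide (5-FAM-GpYLPQTV-NH2) from 25 nM recombinant STAT3(G127-I722). Buffer was 10 mM HEPES pH 7.4 with 1% DMSO final. IC50s were fitted by nonlinear regression of mP against log concentration.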

T2 sequence (P40763 127-722): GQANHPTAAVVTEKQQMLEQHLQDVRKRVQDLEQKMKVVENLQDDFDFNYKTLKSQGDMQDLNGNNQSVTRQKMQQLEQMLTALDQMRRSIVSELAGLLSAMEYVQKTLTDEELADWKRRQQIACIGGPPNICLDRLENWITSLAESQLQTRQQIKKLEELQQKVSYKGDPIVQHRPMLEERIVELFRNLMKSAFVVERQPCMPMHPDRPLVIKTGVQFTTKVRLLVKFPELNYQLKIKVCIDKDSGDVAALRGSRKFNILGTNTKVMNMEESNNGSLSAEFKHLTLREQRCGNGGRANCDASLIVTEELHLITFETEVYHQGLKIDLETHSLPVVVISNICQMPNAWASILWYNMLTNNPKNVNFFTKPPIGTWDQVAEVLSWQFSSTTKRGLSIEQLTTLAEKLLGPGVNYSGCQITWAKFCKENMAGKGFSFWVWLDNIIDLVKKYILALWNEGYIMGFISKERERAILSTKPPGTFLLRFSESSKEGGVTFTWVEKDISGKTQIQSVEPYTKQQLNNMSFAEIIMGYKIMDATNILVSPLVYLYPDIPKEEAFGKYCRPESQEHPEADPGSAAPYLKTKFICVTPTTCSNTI

Broadly, the IC50 is the concentration that gives 50% inhibition. As to `CC(=O)N1CC[C@H]2CC[C@@H](C(=O)N(C)c3ccc(OCCN(C)C)cc3)N2C(=O)[C@@H](NC(=O)c2cc3cc(C(F)(F)P(=O)(O)O)ccc3s2)C1` [Compound 125, ((2-(((5S,8S,10aR)-3-acetyl-8-((4-(2-(dimethylamino)ethoxy)phenyl)(methyl)carbamoyl)-6-oxodecahydropyrrolo[1,2-a][1,5]diazocin-5-yl)carbamoyl)benzo[b]thiophen-5-yl)difluoromethyl)phosphonic acid], the values for the IC50 in assay [1] and in assay [2] were 300 to 3000 nM and 1000 to 10000 nM, respectively.

As for `CC(=O)N1CC[C@H]2CC[C@@H](C(=O)N3CCC[C@H]3Cc3cccnc3)N2C(=O)[C@@H](NC(=O)c2cc3cc(C(F)(F)P(=O)(O)O)ccc3s2)C1` [Compound 126, ((2-(((5S,8S,10aR)-3-acetyl-6-oxo-8-((S)-2-(pyridin-3-ylmethyl)pyrrolidine-1-carbonyl)decahydropyrrolo[1,2-a][1,5]diazocin-5-yl)carbamoyl)benzo[b]thiophen-5-yl)difluoromethyl)phosphonic acid], the IC50 in assay [1] fell in the range of 300 to 3000 nM; in assay [2], 1000 to 10000 nM.

In the case of `CC(=O)N1CC[C@H]2CC[C@@H](C(=O)NC3COc4ccc(Cl)cc4C3)N2C(=O)[C@@H](NC(=O)c2cc3cc(C(F)(F)P(=O)(O)O)ccc3s2)C1` (stereo partly drawn) [Compound 127, ((2-(((5S,8S,10aR)-3-acetyl-8-((6-chlorochroman-3-yl)carbamoyl)-6-oxodecahydropyrrolo[1,2-a][1,5]diazocin-5-yl)carbamoyl)benzo[b]thiophen-5-yl)difluoromethyl)phosphonic acid], the IC50 fell in the range of 300 to 3000 nM in assay [1] and 100 to 1000 nM in assay [2].

Take `CC(=O)N1CC[C@H]2CC[C@@H](C(=O)N3CC(C(=O)N4CCCCC4)C3)N2C(=O)[C@@H](NC(=O)c2cc3cc(C(F)(F)P(=O)(O)O)ccc3[nH]2)C1` [Compound 128, ((2-(((5S,8S,10aR)-3-acetyl-6-oxo-8-(3-(piperidine-1-carbonyl)azetidine-1-carbonyl)decahydropyrrolo[1,2-a][1,5]diazocin-5-yl)carbamoyl)-1H-indol-5-yl)difluoromethyl)phosphonic acid]: the IC50 in assay [1] was 300 to 3000 nM; in assay [2], 100 to 1000 nM.

As for `CC(=O)N1CC[C@H]2CC[C@@H](C(=O)N3CCC[C@@H]3Cc3ccccc3)N2C(=O)[C@@H](NC(=O)c2cc3cc(C(F)(F)P(=O)(O)O)ccc3[nH]2)C1` [Compound 129, ((2-(((5S,8S,10aR)-3-acetyl-8-((R)-2-benzylpyrrolidine-1-carbonyl)-6-oxodecahydropyrrolo[1,2-a][1,5]diazocin-5-yl)carbamoyl)-1H-indol-5-yl)difluoromethyl)phosphonic acid], the IC50 in assay [1] fell in the range of 300 to 3000 nM; in assay [2], 1000 to 10000 nM.

As to `CC(=O)N1CC[C@H]2CC[C@@H](C(=O)N3CCCC3Cc3ccc(F)cc3)N2C(=O)[C@@H](NC(=O)c2cc3cc(C(F)(F)P(=O)(O)O)ccc3[nH]2)C1` (stereo partly drawn) [Compound 130, ((2-(((5S,8S,10aR)-3-acetyl-8-(2-(4-fluorobenzyl)pyrrolidine-1-carbonyl)-6-oxodecahydropyrrolo[1,2-a][1,5]diazocin-5-yl)carbamoyl)-1H-indol-5-yl)difluoromethyl)phosphonic acid], the IC50 in assay [1] fell in the range of 300 to 3000 nM; in assay [2] it was 1000 to 10000 nM.

In the case of `COc1ccc(CC2CCCN2C(=O)[C@@H]2CC[C@@H]3CCN(C(C)=O)C[C@H](NC(=O)c4cc5cc(C(F)(F)P(=O)(O)O)ccc5[nH]4)C(=O)N32)cc1` (stereo partly drawn) [Compound 131, ((2-(((5S,8S,10aR)-3-acetyl-8-(2-(4-methoxybenzyl)pyrrolidine-1-carbonyl)-6-oxodecahydropyrrolo[1,2-a][1,5]diazocin-5-yl)carbamoyl)-1H-indol-5-yl)difluoromethyl)phosphonic acid], the IC50 in assay [1] was 300 to 3000 nM; in assay [2], 1000 to 10000 nM.

`CC(=O)N1CC[C@H]2CC[C@@H](C(=O)N3CCCC3Cc3cccc(Cl)c3)N2C(=O)[C@@H](NC(=O)c2cc3cc(C(F)(F)P(=O)(O)O)ccc3[nH]2)C1` (stereo partly drawn) [Compound 132, ((2-(((5S,8S,10aR)-3-acetyl-8-(2-(3-chlorobenzyl)pyrrolidine-1-carbonyl)-6-oxodecahydropyrrolo[1,2-a][1,5]diazocin-5-yl)carbamoyl)-1H-indol-5-yl)difluoromethyl)phosphonic acid]: the results for the IC50 in assay [1] and in assay [2] were 300 to 3000 nM and 1000 to 10000 nM, respectively.

`CC(=O)N1CC[C@H]2CC[C@@H](C(=O)N3CCCC3Cc3ccccc3F)N2C(=O)[C@@H](NC(=O)c2cc3cc(C(F)(F)P(=O)(O)O)ccc3[nH]2)C1` (stereo partly drawn) [Compound 133, ((2-(((5S,8S,10aR)-3-acetyl-8-(2-(2-fluorobenzyl)pyrrolidine-1-carbonyl)-6-oxodecahydropyrrolo[1,2-a][1,5]diazocin-5-yl)carbamoyl)-1H-indol-5-yl)difluoromethyl)phosphonic acid]: the IC50 lay within 300 to 3000 nM in assay [1] and 1000 to 10000 nM in assay [2].

As for `CC(=O)N1CC[C@H]2CC[C@@H](C(=O)N(C)C3CCCCC3)N2C(=O)[C@@H](NC(=O)c2cc3cc(C(F)(F)P(=O)(O)O)ccc3[nH]2)C1` [Compound 134], the IC50 is 300 to 3000 nM in assay [1] and 1000 to 10000 nM in assay [2].

As to `CC(=O)N1CC[C@H]2CC[C@@H](C(=O)N(C)c3ccc(OC(F)(F)F)cc3)N2C(=O)[C@@H](NC(=O)c2cc3cc(C(F)(F)P(=O)(O)O)ccc3[nH]2)C1` [Compound 135, ((2-(((5S,8S,10aR)-3-acetyl-8-(methyl(4-(trifluoromethoxy)phenyl)carbamoyl)-6-oxodecahydropyrrolo[1,2-a][1,5]diazocin-5-yl)carbamoyl)-1H-indol-5-yl)difluoromethyl)phosphonic acid], the IC50 fell in the range of 300 to 3000 nM in assay [1] and 1000 to 10000 nM in assay [2].

For the compound `CC(=O)N1CC[C@H]2CC[C@@H](C(=O)N(C)c3ccc(C(C)(C)C)cc3)N2C(=O)[C@@H](NC(=O)c2cc3cc(C(F)(F)P(=O)(O)O)ccc3[nH]2)C1` [Compound 136, ((2-(((5S,8S,10aR)-3-acetyl-8-((4-(tert-butyl)phenyl)(methyl)carbamoyl)-6-oxodecahydropyrrolo[1,2-a][1,5]diazocin-5-yl)carbamoyl)-1H-indol-5-yl)difluoromethyl)phosphonic acid], the figures for the IC50 in assay [1] and in assay [2] were at most 300 nM and 1000 to 10000 nM, respectively.

Consider `COCCOc1ccc(N(C)C(=O)[C@@H]2CC[C@@H]3CCN(C(C)=O)C[C@H](NC(=O)c4cc5cc(C(F)(F)P(=O)(O)O)ccc5[nH]4)C(=O)N32)cc1` [Compound 137, ((2-(((5S,8S,10aR)-3-acetyl-8-((4-(2-methoxyethoxy)phenyl)(methyl)carbamoyl)-6-oxodecahydropyrrolo[1,2-a][1,5]diazocin-5-yl)carbamoyl)-1H-indol-5-yl)difluoromethyl)phosphonic acid], for which the IC50 was 300 to 3000 nM in assay [1] and 1000 to 10000 nM in assay [2].

With `CC(=O)N1CC[C@H]2CC[C@@H](C(=O)Nc3ccn(-c4ccccc4)c(=O)c3)N2C(=O)[C@@H](NC(=O)c2cc3cc(C(F)(F)P(=O)(O)O)ccc3[nH]2)C1` [Compound 140, ((2-(((5S,8S,10aR)-3-acetyl-6-oxo-8-((2-oxo-1-phenyl-1,2-dihydropyridin-4-yl)carbamoyl)decahydropyrrolo[1,2-a][1,5]diazocin-5-yl)carbamoyl)-1H-indol-5-yl)difluoromethyl)phosphonic acid], the IC50 in assay [1] lay within 300 to 3000 nM; in assay [2], 100 to 1000 nM.
